Earlier results, collected in patent publication US20010004459A1, “Composition with sustained release of active principle, capable of forming a microemulsion” (priority 1998, published 2001).

Conditions: acidic pH (dissolution curve at pH 1.2, FIG. 2)

COc1ccc2c(c1)c(CC(=O)O)c(C)n2C(=O)c1ccc(Cl)cc1 [indomethacin, Indomethacin]
solubility at acidic pH: insoluble
